Patent US20080206316A1, “Chromium-Fatty Acid Compounds and Methods of Making and Using Thereof” (priority 2005, published 2008)

Test system: diabetic mice
Experiment: Fasting blood glucose in diabetic mice fed test diets
Assay type: in vivo, Mice (C57BL/6J)
Procedure: Mice (C57BL/6J) weighing 20-grams were fed a high fat, high sucrose diet with no added chromium (No. D01030101, Research Diets Inc., New Brunswick, N.J.). After two weeks, they were injected intraperitoneally (i.p.) with streptozotocin (in phosphate-buffered saline, PBS) at a dose of 35 mg/kg body weight on 3 consecutive days. The combination of the high fat/high sucrose diet and streptozotocin treatment produced an impaired glucose tolerance evident 7 days following the initial streptozotocin injection (FIG. 5). Glucose tolerance was measured in mice fasted overnight and then injected i.p. with 1 g glucose/kg body weight (0.25 mL of a 10% glucose solution in PBS). Blood glucose was measured using a glucometer (OneTouch Ultra, LifeScan Inc., Milpitas, Calif.) on a drop of blood obtained from the saphenous vein just prior to (0 time) and at 10, 30, 60, 90 and 120 minutes following injection.
Animals were subsequently assigned to one of four different diet treatments, six animals per group. The diets were modified from the above high fat, high sucrose diet (Table 6). Each diet contained 1.5% fish oil concentrate (40:20 EPA/DHA ethyl ester, Ocean Nutrition Canada, Ltd., Mulgrave, NS). […] The animals were fed these diets for 4 weeks, after which time, fasting blood glucose and glucose tolerance was evaluated. […]

## O=C([O-])c1ccccn1.O=C([O-])c1ccccn1.O=C([O-])c1ccccn1.[Cr+3] [Cr picolinate]
Diabetic mice (high fat/high sucrose diet + streptozotocin), diet with 1000 μg elemental Cr/kg diet for 4 weeks, fasted
  Fast blood glucose levels: 8.17 ± 1.8 mM
Diabetic mice, dietary Cr for 4 weeks
  fasting blood glucose compared to the level in the control group: reduction in fasting blood glucose
